{"source": "ChEMBL document CHEMBL1150599", "about": "“Spiroidesin, a novel lipopeptide from the cyanobacterium Anabaena spiroides that inhibits cell growth of the cyanobacterium Microcystis aeruginosa” (J Nat Prod, 2002)", "key": {"Microcystis aeruginosa": {"test_system": "Microcystis aeruginosa", "experiment": "Growth inhibition of Microcystis aeruginosa NIES-88 after 5 days", "type": "functional, organism-based", "conditions": "NIES-88, 120 h"}, "[1]": {"experiment": "Inhibition of alpha-chymotrypsin"}}, "data": [{"smiles": "CCCCCC(=O)N[C@H](CCc1ccc(O)cc1)C(=O)N[C@@H](CCc1ccc(O)cc1)C(=O)N[C@H](Cc1ccccc1)C(=O)O", "note": "[SPIROIDESIN]", "values": [{"measurement": "IC50", "setting": "Microcystis aeruginosa", "value": 1.6, "unit": "µM"}, {"measurement": "IC50", "setting": "[1]", "value": 10, "unit": "µM"}]}]}
